{
  "source": "patent US20250281462A1",
  "about": "“THERAPEUTICALLY EFFECTIVE ORAL ADMINISTRATION OF A 2 ARYLBENZIMIDAZOLE” (Tranquis Therapeutics, Inc., priority 2021, published 2025)",
  "experiment": "Plasma concentrations of TQS-168 and TQS-621 after single oral dose 50 mg/kg in mice, three formulations",
  "type": "in vivo",
  "conditions": "male, C57BL/6, mouse, plasma, po, 50 mg/kg; for Cmax / AUC(0-t) / Tmax / AUC(0-inf) / half-life: mice plasma; for Cmax: read-out: Cmax; for Tmax: read-out: tmax",
  "method": "In a second experiment, mice were administered 50 mg/kg TQS-168 by oral gavage. For Group 1, TQS-168 was prepared at a concentration of 5.0 mg/mL in a suspension with […] in PBS. For Group 2, TQS-168 was prepared at a concentration of 5.0 mg/mL as a solution in 10 polyethylene glycol (PEG) 400|30 Kleptose (Roquete)|60% water.\nPlasma exposures for Group 1 mice (ng/mL) are presented in Table 2 and for Group 2 mice in Table 3.\nC57BL/6 male mice were administered a single dose of TQS-168 at 50 mg/kg using one of three formulations: Group 1-5.0 mg/ml suspension in 0.5% methylcellulose in PBS; Group 2-5.0 mg/ml solution in PEG400 (Fluka) 10%|Kleptose (Roquette) 30%|sterile water 60%; Group 3-5.0 mg/ml suspension in Labrafil M 1944 CS (Gattefosse) 30%|Masine CC (Gattefosse) 5%|Miglyol 812N 10%|sterile water 55%.\nPlasma concentrations of TQS-168 and TQS-621 were measured overtime.",
  "key": {"[1]": {"conditions": "TQS-168 50 mg/kg p.o., Group 1 (suspension, 0.5% methylcellulose in PBS), individual mouse"}, "[2]": {"conditions": "TQS-168 50 mg/kg p.o., Group 1 (suspension, 0.5% methylcellulose in PBS), mean"}, "[3]": {"conditions": "TQS-168 50 mg/kg p.o., Group 2 (solution, PEG400/Kleptose/water), individual mouse"}, "[4]": {"conditions": "TQS-168 50 mg/kg p.o., Group 2 (solution, PEG400/Kleptose/water), mean"}, "[5]": {"conditions": "TQS-168 50 mg/kg p.o., Group 3 (suspension, Labrafil/Masine/Miglyol/water), individual mouse"}, "[6]": {"conditions": "TQS-168 50 mg/kg p.o., Group 3 (suspension, Labrafil/Masine/Miglyol/water), mean"}, "[7]": {"conditions": "mice, 50 mg/kg p.o., Group 1 (suspension, methylcellulose in PBS), individual mouse, read-out: Calculated Concentration in plasma"}, "[8]": {"conditions": "mice, 50 mg/kg p.o., Group 1 (suspension, methylcellulose in PBS), mean, read-out: Calculated Concentration in plasma"}, "[9]": {"conditions": "mice, 50 mg/kg p.o., Group 2 (solution, PEG 400/Kleptose/water), individual mouse, read-out: Calculated Concentration in plasma"}, "[10]": {"conditions": "mice, 50 mg/kg p.o., Group 2 (solution, PEG 400/Kleptose/water), mean, read-out: Calculated Concentration in plasma"}},
  "note": "Like-named read-outs stand apart in the source and are kept apart here.",
  "data": [
    {"molecule": "CC(C)(C)c1ccc(-c2nc3ccccc3[nH]2)cc1", "note": "[TQS-168, 2-(4-tert-butylphenyl)-1H-benzimidazole]", "values": [
      {"measurement": "Cmax", "setting": "50 mg/kg p.o., Group 1 (suspension)", "result": 4.5, "unit": "µM"},
      {"measurement": "Cmax", "setting": "50 mg/kg p.o., Group 2 (solution)", "result": 8.54, "unit": "µM"},
      {"measurement": "Cmax", "setting": "50 mg/kg p.o., Group 3 (suspension)", "result": 2.4, "unit": "µM"},
      {"measurement": "AUC(0-t)", "setting": "[1]", "result": 5040, "unit": "ng·h/mL"},
      {"measurement": "Cmax", "setting": "[1]", "result": 1280, "unit": "ng/mL"},
      {"measurement": "Tmax", "setting": "[1]", "result": 1, "unit": "h"},
      {"measurement": "AUC(0-inf)", "setting": "[2]", "result": 8110, "unit": "ng·h/mL"},
      {"measurement": "AUC(0-t)", "setting": "[2]", "result": 5970, "unit": "ng·h/mL"},
      {"measurement": "half-life", "setting": "[2]", "result": 4.3, "unit": "h"},
      {"measurement": "Cmax", "setting": "[2]", "result": 1120, "unit": "ng/mL"},
      {"measurement": "Tmax", "setting": "[2]", "result": 0.833, "unit": "h"},
      {"measurement": "AUC(0-inf)", "setting": "[3]", "result": 11400, "unit": "ng·h/mL"},
      {"measurement": "AUC(0-t)", "setting": "[3]", "result": 10600, "unit": "ng·h/mL"},
      {"measurement": "half-life", "setting": "[3]", "result": 2.81, "unit": "h"},
      {"measurement": "Cmax", "setting": "[3]", "result": 1950, "unit": "ng/mL"},
      {"measurement": "Tmax", "setting": "[3]", "result": 0.5, "unit": "h"},
      {"measurement": "AUC(0-inf)", "setting": "[4]", "result": 11400, "unit": "ng·h/mL"},
      {"measurement": "AUC(0-t)", "setting": "[4]", "result": 10700, "unit": "ng·h/mL"},
      {"measurement": "half-life", "setting": "[4]", "result": 2.82, "unit": "h"},
      {"measurement": "Cmax", "setting": "[4]", "result": 2140, "unit": "ng/mL"},
      {"measurement": "Tmax", "setting": "[4]", "result": 0.833, "unit": "h"},
      {"measurement": "AUC(0-inf)", "setting": "[5]", "result": 4250, "unit": "ng·h/mL"},
      {"measurement": "AUC(0-t)", "setting": "[5]", "result": 4110, "unit": "ng·h/mL"},
      {"measurement": "half-life", "setting": "[5]", "result": 1.47, "unit": "h"},
      {"measurement": "Cmax", "setting": "[5]", "result": 611, "unit": "ng/mL"},
      {"measurement": "AUC(0-inf)", "setting": "[6]", "result": 4150, "unit": "ng·h/mL"},
      {"measurement": "AUC(0-t)", "setting": "[6]", "result": 3930, "unit": "ng·h/mL"},
      {"measurement": "half-life", "setting": "[6]", "result": 1.71, "unit": "h"},
      {"measurement": "Cmax", "setting": "[6]", "result": 611, "unit": "ng/mL"},
      {"measurement": "Tmax", "setting": "[6]", "result": 3.17, "unit": "h"},
      {"measurement": "concentration at 0.25 h", "setting": "[7]", "result": 586, "unit": "ng/mL"},
      {"measurement": "concentration at 0.25 h", "setting": "[8]", "result": 653, "unit": "ng/mL"},
      {"measurement": "concentration at 0.5 h", "setting": "[8]", "result": 949, "unit": "ng/mL"},
      {"measurement": "concentration at 1 h", "setting": "[7]", "result": 1280, "unit": "ng/mL"},
      {"measurement": "concentration at 1 h", "setting": "[8]", "result": 1100, "unit": "ng/mL"},
      {"measurement": "concentration at 2 h", "setting": "[8]", "result": 776, "unit": "ng/mL"},
      {"measurement": "concentration at 4 h", "setting": "[7]", "result": 435, "unit": "ng/mL"},
      {"measurement": "concentration at 4 h", "setting": "[8]", "result": 435, "unit": "ng/mL"},
      {"measurement": "concentration at 8 h", "setting": "[8]", "result": 446, "unit": "ng/mL"},
      {"measurement": "concentration at 12 h", "setting": "mice, 50 mg/kg p.o., Group 1 (suspension, methylcellulose in PBS), 12 hr, mean, read-out: Calculated Concentration in plasma", "result": 187, "unit": "ng/mL"},
      {"measurement": "concentration at 0.25 h", "setting": "[9]", "result": 656, "unit": "ng/mL"},
      {"measurement": "concentration at 0.25 h", "setting": "[10]", "result": 900, "unit": "ng/mL"},
      {"measurement": "concentration at 0.5 h", "setting": "[9]", "result": 1950, "unit": "ng/mL"},
      {"measurement": "concentration at 0.5 h", "setting": "[10]", "result": 1960, "unit": "ng/mL"},
      {"measurement": "concentration at 1 h", "setting": "[9]", "result": 1520, "unit": "ng/mL"},
      {"measurement": "concentration at 1 h", "setting": "[10]", "result": 1990, "unit": "ng/mL"},
      {"measurement": "concentration at 2 h", "setting": "[9]", "result": 1810, "unit": "ng/mL"},
      {"measurement": "concentration at 2 h", "setting": "[10]", "result": 1760, "unit": "ng/mL"},
      {"measurement": "concentration at 4 h", "setting": "[9]", "result": 1330, "unit": "ng/mL"},
      {"measurement": "concentration at 4 h", "setting": "[10]", "result": 1200, "unit": "ng/mL"},
      {"measurement": "concentration at 8 h", "setting": "[9]", "result": 374, "unit": "ng/mL"},
      {"measurement": "concentration at 8 h", "setting": "[10]", "result": 427, "unit": "ng/mL"}
    ]}
  ]
}
